# Data published in ChEMBL document CHEMBL3822371, “Rapid Discovery and Structure-Activity Relationships of Pyrazolopyrimidines That Potently Suppress Breast Cancer Cell Growth via SRC Kinase Inhibition with Exceptional Selectivity over ABL Kinase” (J Med Chem, 2016).
# Calls of active or inactive are those of the source. The rule behind the calls is not given here.
# Columns and labels:
# [1] = target: Tyrosine-protein kinase Fyn (Homo sapiens, UniProt P06241); test: Inhibition of human FYN using poly[Glu,Tyr]4:1 as substrate in presence of [gamma-33P]ATP
# [2] = target: T1, Proto-oncogene tyrosine-protein kinase Src (Homo sapiens, UniProt P12931); test: biochemical; assay type: cell-based
# MCF7 [3] = test: Antiproliferative activity against human MCF7 cells assessed as blockage of cell division at […] after 48 to 120 hrs by microscopy based time-lapse imaging assay; assay type: functional
# [4] = target: Platelet-derived growth factor receptor alpha (Homo sapiens, UniProt P16234); test: Inhibition of human PDGFRalpha using poly[Glu,Tyr]4:1 as substrate in presence of [gamma-33P]ATP
# [5] = target: Serine/threonine-protein kinase mTOR (Homo sapiens, UniProt P42345); test: Inhibition of human mTOR using poly[Glu,Tyr]4:1 as substrate in presence of [gamma-33P]ATP
# [6] = target: Tyrosine-protein kinase ABL1 (Homo sapiens, UniProt P00519)
# [7] = target: Mast/stem cell growth factor receptor Kit (Homo sapiens, UniProt P10721); test: Inhibition of human KIT using poly[Glu,Tyr]4:1 as substrate in presence of [gamma-33P]ATP
# [8] = target: Tyrosine-protein kinase Yes (Homo sapiens, UniProt P07947); test: Inhibition of human YES using poly[Glu,Tyr]4:1 as substrate in presence of [gamma-33P] ATP
# [9] = target: Proto-oncogene tyrosine-protein kinase receptor Ret (Homo sapiens, UniProt P07949); test: Inhibition of human RET using poly[Glu,Tyr]4:1 as substrate in presence of [gamma-33P]ATP
# MCF7 [10] = test: cells; conditions: Homo sapiens, MCF7, 120 h
# MDA-MB-231 [11] = test: cells; conditions: Homo sapiens, MDA-MB-231, 120 h
# MCF7 [12] = test: Antiproliferative activity against human MCF7 cells assessed as reduction in cell confluence level at […] after 5 days by microscopy based time-lapse imaging assay; assay type: functional
# Cytochrome P450 2D6 = Cytochrome P450 2D6 (Homo sapiens, UniProt P10635); test: Inhibition of CYP2D6 (unknown origin) at 10 uM; assay type: ADME
# MDA-MB-231 [13] = test: Antimigratory activity in human MDA-MB-231 cells at >10 nM after 24 hrs by microscopy based scratch-wound cell migration assay; assay type: functional
# [14] = Antiproliferative activity against SRC, YES and FYN deficient mouse SYF cells at 3 to 100 nM; assay type: cell-based; conditions: 0.1 µM
# MCF7 [15] = test: Induction of apoptosis in human MCF7 cells assessed as caspase 3/7 activity at >/= 100 nM after 5 days using phase contrast and fluorescent microscopy; assay type: functional, cell-based
# [16] = target: Focal adhesion kinase 1 (Mus musculus) (UniProt P34152); test: Inhibition of FAK phosphorylation at tyrosine 861 in SRC, YES and FYN deficient mouse SYF cells at 3 to 100 nM preincubated for 1.5 hrs followed by serum stimulation for 1 hr by Western blot analysis; assay type: cell-based
# Plasma [17] = test: Metabolic stability in rat plasma at 1 uM after 20 to 120 mins by LC-MS/MS analysis; assay type: ADME, cell-free
# MDA-MB-231 [18] = test: Cytotoxicity against human MDA-MB-231 cells assessed as reduction in cell viability at >10 nM after 24 hrs; assay type: cell-based; conditions: mda-mb-231, 24 h
# Plasma [19] = test: Metabolic stability in human plasma at 1 uM after 20 to 120 mins by LC-MS/MS analysis; assay type: ADME, cell-free
# Cytochrome P450 2C19 = Cytochrome P450 2C19 (Homo sapiens, UniProt P33261); test: Inhibition of CYP2C19 (unknown origin) at 10 uM; assay type: ADME
# Cytochrome P450 3A4 = Cytochrome P450 3A4 (Homo sapiens, UniProt P08684); test: Inhibition of CYP3A4 (unknown origin) at 10 uM; assay type: ADME
# Cytochrome P450 1A2 = target: T2, Cytochrome P450 1A2 (Homo sapiens, UniProt P05177); test: Inhibition of CYP1A2 (unknown origin) at 10 uM; assay type: ADME
# T2 sequence (P05177 whole entry): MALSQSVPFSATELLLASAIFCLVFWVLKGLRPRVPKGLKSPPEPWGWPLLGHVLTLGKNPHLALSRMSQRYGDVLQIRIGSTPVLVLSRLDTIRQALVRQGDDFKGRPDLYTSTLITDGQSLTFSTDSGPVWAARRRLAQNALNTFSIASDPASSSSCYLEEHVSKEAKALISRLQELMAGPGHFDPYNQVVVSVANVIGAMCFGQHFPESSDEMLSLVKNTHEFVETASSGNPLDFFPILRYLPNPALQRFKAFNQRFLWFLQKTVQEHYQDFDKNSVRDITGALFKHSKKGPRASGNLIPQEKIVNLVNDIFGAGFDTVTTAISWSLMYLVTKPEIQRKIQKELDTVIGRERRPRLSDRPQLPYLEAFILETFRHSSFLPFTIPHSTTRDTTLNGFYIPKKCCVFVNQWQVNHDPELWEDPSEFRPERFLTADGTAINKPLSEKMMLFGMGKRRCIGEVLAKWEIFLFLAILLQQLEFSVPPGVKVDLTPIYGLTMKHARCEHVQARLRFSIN
# Cytochrome P450 2C9 = Cytochrome P450 2C9 (Homo sapiens, UniProt P11712); test: Inhibition of CYP2C9 (unknown origin) at 10 uM; assay type: ADME
# Mus musculus = test: In vivo inhibition of SRC phosphorylation at tyrosine 416 in human HCT116 cells xenografted in mouse at 50 mg/kg via oral gavage administered daily for 3 days measured 3 hrs post last dose by immunohistochemistry; assay type: functional, organism-based; conditions: HCT-116
# Plasma [20] = test: Metabolic stability in mouse plasma at 1 uM after 20 to 120 mins by LC-MS/MS analysis; assay type: ADME, cell-free
# Danio rerio [21] = species: Danio rerio; test: Effect on the development of the wild-type zebrafish embryos at 500 uM treated for 4 hrs measured at 48 hrs by fluorescent microscopy; assay type: ADME, organism-based; conditions: in vivo
# [22] = target: T1, Proto-oncogene tyrosine-protein kinase Src
# MCF7 [23] = test: Antiproliferative activity against human MCF7 cells assessed as cell death at […] after 48 to 120 hrs by microscopy based time-lapse imaging assay; assay type: functional
# Danio rerio [24] = species: Danio rerio; test: Cardiotoxicity in wild-type zebrafish embryos assessed as heart enlargement at 1 to 10 uM treated for 4 hrs measured after 48 hrs by fluorescent microscopy; assay type: toxicity, organism-based; conditions: in vivo
# [25] = Half life in nude mouse at 10 mg/kg, […] via oral gavage; assay type: ADME, organism-based; conditions: in vivo
# [26] = Solubility of the compound in water at pH 7; assay type: physicochemical
# MDA-MB-231 [27] = test: Increase in total SRC in human MDA-MB-231 cells preincubated for 1.5 hrs followed by serum stimulation for 1 hr by Western blot analysis; assay type: cell-based; conditions: mda-mb-231, 1 h
# Danio rerio [28] = species: Danio rerio; test: Toxicity in wild-type zebrafish embryos assessed as mortality at >10 uM treated for 4 hrs measured after 48 hrs by fluorescent microscopy; assay type: organism-based; conditions: in vivo
# Danio rerio [29] = species: Danio rerio; test: Cardiotoxicity in wild-type zebrafish embryos at >10 uM treated for 4 hrs measured after 48 hrs by fluorescent microscopy; assay type: organism-based; conditions: in vivo
# [30] = Solubility of the compound in water at pH 2.6; assay type: physicochemical
# T1 sequence (P12931 2-536 limits assumed): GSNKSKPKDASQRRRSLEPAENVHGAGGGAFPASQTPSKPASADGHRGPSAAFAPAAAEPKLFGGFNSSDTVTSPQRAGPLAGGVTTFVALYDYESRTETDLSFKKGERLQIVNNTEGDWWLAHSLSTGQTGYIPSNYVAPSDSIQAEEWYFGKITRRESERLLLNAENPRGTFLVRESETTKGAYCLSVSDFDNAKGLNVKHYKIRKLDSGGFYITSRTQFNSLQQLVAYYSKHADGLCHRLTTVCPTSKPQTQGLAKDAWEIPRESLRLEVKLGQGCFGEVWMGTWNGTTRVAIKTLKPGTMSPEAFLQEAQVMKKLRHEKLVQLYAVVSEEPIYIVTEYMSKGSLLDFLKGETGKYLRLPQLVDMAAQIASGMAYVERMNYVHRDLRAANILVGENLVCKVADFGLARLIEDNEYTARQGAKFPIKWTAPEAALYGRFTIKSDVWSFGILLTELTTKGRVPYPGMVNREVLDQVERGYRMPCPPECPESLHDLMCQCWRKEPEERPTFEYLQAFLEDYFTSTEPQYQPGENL
# Chain of Proto-oncogene tyrosine-protein kinase receptor Ret (P07949 whole entry): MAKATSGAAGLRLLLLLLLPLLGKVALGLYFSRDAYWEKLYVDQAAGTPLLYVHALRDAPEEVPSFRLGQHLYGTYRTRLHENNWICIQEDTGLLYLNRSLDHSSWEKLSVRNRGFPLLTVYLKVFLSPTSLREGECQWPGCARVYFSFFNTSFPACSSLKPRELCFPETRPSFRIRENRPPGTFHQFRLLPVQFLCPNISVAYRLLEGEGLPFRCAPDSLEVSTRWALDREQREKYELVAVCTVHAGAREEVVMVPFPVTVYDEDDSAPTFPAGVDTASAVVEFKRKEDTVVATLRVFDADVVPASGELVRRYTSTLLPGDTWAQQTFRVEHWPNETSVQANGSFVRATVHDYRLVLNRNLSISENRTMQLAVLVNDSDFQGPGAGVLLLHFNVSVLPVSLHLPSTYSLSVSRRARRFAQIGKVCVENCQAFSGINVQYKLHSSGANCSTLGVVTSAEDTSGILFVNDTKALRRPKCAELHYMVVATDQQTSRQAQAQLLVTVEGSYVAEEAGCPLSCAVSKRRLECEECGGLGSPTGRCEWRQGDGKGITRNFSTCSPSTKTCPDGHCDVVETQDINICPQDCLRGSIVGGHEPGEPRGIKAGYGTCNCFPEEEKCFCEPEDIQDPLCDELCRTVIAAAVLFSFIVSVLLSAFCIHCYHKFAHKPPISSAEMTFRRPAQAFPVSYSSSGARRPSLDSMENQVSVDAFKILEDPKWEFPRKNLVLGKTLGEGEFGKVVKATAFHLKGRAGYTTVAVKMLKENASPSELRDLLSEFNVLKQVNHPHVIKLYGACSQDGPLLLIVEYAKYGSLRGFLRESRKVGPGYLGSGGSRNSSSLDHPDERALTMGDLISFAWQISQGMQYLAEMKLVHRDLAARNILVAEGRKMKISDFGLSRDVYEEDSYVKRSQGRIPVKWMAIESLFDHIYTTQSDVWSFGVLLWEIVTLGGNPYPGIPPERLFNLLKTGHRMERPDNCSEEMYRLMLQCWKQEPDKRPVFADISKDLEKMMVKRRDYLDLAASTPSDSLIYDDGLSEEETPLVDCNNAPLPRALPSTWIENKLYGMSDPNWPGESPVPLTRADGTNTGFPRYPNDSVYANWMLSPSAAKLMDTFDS
# Chain of Platelet-derived growth factor receptor alpha (P16234 whole entry): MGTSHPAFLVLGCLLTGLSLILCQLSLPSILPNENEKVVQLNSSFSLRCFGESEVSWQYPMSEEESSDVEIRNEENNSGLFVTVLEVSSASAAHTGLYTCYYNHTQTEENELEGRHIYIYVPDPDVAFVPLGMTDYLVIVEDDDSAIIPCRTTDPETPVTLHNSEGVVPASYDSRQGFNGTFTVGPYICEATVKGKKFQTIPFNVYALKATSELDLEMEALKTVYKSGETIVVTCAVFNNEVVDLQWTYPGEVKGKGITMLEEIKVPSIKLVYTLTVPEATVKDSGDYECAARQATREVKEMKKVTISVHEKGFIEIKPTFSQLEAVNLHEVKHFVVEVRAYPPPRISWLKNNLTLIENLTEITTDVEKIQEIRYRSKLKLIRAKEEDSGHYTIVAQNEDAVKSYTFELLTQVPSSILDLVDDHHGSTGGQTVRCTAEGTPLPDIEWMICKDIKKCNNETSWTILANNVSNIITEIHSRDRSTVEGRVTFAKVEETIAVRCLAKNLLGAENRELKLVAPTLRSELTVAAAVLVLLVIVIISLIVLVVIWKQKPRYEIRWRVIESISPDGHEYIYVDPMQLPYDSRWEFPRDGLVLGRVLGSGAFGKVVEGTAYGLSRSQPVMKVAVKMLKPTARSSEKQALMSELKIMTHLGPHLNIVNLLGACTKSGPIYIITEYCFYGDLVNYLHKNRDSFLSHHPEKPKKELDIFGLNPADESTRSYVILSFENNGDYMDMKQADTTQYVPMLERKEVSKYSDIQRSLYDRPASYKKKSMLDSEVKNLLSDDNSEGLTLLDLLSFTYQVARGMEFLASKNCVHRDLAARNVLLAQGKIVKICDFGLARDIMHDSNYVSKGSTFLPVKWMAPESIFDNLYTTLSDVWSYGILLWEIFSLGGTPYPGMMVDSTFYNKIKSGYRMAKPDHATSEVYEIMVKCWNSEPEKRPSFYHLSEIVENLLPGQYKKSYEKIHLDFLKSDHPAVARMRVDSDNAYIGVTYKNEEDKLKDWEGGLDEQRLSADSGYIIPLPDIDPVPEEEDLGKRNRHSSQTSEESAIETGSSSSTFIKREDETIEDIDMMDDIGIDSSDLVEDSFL
# Chain of Mast/stem cell growth factor receptor Kit (P10721 whole entry): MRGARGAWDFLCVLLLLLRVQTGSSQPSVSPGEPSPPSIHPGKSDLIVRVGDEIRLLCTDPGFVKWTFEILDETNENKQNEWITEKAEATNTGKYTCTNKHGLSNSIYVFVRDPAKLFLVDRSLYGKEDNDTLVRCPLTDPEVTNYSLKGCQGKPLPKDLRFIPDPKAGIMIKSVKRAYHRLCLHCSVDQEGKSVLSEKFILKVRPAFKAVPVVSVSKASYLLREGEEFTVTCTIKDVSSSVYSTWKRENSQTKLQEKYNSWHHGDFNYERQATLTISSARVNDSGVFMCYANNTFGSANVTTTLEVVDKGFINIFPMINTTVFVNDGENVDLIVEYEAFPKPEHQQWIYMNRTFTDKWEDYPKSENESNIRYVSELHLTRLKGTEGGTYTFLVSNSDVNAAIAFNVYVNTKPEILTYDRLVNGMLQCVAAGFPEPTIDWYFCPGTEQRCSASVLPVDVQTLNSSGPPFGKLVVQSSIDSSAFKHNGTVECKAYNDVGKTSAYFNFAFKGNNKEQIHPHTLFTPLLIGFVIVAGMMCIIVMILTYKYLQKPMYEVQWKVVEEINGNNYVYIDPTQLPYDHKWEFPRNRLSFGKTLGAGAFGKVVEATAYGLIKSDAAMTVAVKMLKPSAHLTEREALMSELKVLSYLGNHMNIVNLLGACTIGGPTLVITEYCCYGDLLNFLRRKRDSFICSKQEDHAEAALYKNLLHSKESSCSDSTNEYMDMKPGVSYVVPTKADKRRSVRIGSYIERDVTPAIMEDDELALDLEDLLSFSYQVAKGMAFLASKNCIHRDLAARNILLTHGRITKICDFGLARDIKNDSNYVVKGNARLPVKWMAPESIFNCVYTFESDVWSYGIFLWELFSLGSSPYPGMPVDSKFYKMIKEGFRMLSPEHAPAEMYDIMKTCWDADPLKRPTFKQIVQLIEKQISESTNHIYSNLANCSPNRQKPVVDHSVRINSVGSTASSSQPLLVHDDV
# Chain of Tyrosine-protein kinase Yes (P07947 whole entry): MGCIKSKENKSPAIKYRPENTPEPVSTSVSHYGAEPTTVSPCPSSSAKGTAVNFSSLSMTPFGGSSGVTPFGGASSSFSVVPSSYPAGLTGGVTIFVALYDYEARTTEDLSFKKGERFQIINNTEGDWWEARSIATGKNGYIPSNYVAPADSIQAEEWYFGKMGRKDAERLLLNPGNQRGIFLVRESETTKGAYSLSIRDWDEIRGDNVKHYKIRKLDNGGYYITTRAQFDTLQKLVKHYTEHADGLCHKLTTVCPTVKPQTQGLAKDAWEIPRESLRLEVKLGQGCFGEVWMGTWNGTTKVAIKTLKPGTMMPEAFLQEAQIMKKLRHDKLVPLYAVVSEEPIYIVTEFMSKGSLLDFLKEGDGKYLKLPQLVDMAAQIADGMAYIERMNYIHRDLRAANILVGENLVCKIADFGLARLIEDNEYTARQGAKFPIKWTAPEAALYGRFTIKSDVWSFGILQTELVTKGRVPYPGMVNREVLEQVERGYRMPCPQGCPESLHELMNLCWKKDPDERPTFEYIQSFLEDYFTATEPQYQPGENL
# Chain of Tyrosine-protein kinase Fyn (P06241 whole entry): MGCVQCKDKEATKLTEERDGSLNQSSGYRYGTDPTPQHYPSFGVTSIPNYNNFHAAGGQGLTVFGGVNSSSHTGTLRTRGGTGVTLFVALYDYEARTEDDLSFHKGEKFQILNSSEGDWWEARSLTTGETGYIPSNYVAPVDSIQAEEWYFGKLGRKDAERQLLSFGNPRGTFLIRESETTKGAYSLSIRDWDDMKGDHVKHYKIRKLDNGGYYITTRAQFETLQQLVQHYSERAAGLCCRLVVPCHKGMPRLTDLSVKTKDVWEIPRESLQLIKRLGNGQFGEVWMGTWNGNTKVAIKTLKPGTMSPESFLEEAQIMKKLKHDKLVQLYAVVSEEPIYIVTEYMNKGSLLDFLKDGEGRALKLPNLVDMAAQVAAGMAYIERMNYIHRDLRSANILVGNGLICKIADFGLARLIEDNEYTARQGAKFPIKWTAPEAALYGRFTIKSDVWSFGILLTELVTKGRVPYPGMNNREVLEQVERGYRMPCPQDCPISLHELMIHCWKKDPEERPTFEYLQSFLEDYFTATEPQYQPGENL
smiles,measurement,setting,value
CCOC(Cn1nc(-c2cnc3[nH]ccc3c2)c2c(N)ncnc21)OCC,IC50,[1],1.23 µM
same,IC50,[2],2.45 µM
same,Activity,MCF7 [3],Active
same,IC50,[4],> 10 µM
same,IC50,[5],0.328 µM
same,IC50,[6],1.21 µM
same,IC50,[7],> 10 µM
same,IC50,[8],0.566 µM
same,IC50,[9],0.598 µM
CCOC(Cn1nc(-c2ccc(OC)c(OC)c2)c2c(N)ncnc21)OCC,EC50,MCF7 [10],6.1 µM
CCOC(Cn1nc(-c2ccc3ncccc3c2)c2c(N)ncnc21)OCC,EC50,MCF7 [10],263 µM
CN(C)CC1CCN(CCn2nc(-c3ccoc3)c3c(N)ncnc32)CC1,EC50,MCF7 [10],57.1 µM
COc1ccc(-c2nn(CCN3CCC(N(C)C)CC3)c3ncnc(N)c23)cc1NC(=O)OC(C)(C)C,EC50,MDA-MB-231 [11],28.6 µM
Cc1ccc(-c2nn(CCN3CCC(N(C)C)CC3)c3ncnc(N)c23)cc1,IC50,[4],> 10 µM
same,IC50,[5],> 10 µM
same,Activity,MCF7 [12],Active
same,IC50,[7],> 10 µM
same,IC50,[9],6.58 µM
CN(C)CC1CCN(CCn2nc(C#Cc3ccccc3)c3c(N)ncnc32)CC1,EC50,MCF7 [10],13.5 µM
CCOC(Cn1nc(-c2ccc(C)cc2)c2c(N)ncnc21)OCC,EC50,MCF7 [10],30.9 µM
COc1cc(-c2nn(CCN3CCC(N(C)C)CC3)c3ncnc(N)c23)ccc1NC(=O)OC(C)(C)C,inhibition (INH),Cytochrome P450 2D6,Not Active
same,Activity,MDA-MB-231 [13],Active
same,Activity,[14],Non-toxic
same,Activity,MCF7 [15],Active
same,inhibition,[16],inactive
same,Stability,Plasma [17],Stable
same,Activity,MDA-MB-231 [18],Toxic
same,Stability,Plasma [19],Stable
same,inhibition (INH),Cytochrome P450 2C19,Not Active
same,inhibition (INH),Cytochrome P450 3A4,Not Active
same,IC50,[7],> 10 µM
same,inhibition (INH),Cytochrome P450 1A2,Active
same,inhibition (INH),Cytochrome P450 2C9,Not Active
same,inhibition,Mus musculus,Active
same,Stability,Plasma [20],Stable
same,Activity,Danio rerio [21],Non-toxic
same,TDI,[22],inactive
COc1cc(-c2nn(CCN3CCC(N(C)C)CC3)c3ncnc(N)c23)ccc1NC(=O)CCc1ccccc1,EC50,MDA-MB-231 [11],12.2 µM
COc1ccc(-c2nn(CCN3CCC(CN(C)C)CC3)c3ncnc(N)c23)cc1OC,EC50,MCF7 [10],18.3 µM
COc1cc(-c2nn(CCN3CCC(N(C)C)CC3)c3ncnc(N)c23)ccc1NCc1ccccn1,EC50,MDA-MB-231 [11],40.2 µM
COc1cc(-c2nn(CCN3CCC(OC)CC3)c3ncnc(N)c23)ccc1NC(=O)OC(C)(C)C,EC50,MDA-MB-231 [11],1.96 µM
CCOC(Cn1nc(C#Cc2ccccc2)c2c(N)ncnc21)OCC,EC50,MCF7 [10],5 µM
CN(C)CC1CCN(CCn2nc(-c3cnc4[nH]ccc4c3)c3c(N)ncnc32)CC1,Activity,MCF7 [23],Active
same,IC50,[4],> 10 µM
same,IC50,[5],8.57 µM
same,IC50,[7],> 10 µM
CN(C)C1CCN(CCn2nc(-c3ccc4c(ccn4C(=O)OC(C)(C)C)c3)c3c(N)ncnc32)CC1,EC50,MDA-MB-231 [11],4.15 µM
CCOC(Cn1nc(-c2ccoc2)c2c(N)ncnc21)OCC,EC50,MCF7 [10],43.1 µM
CN(C)C1CCN(CCn2nc(-c3ccc(NC(=O)OC(C)(C)C)nc3)c3c(N)ncnc32)CC1,EC50,MDA-MB-231 [11],17.7 µM
COc1cc(-c2nn(CCN3CCC(N(C)C)CC3)c3ncnc(N)c23)ccc1NCc1cccnc1,EC50,MDA-MB-231 [11],4.14 µM
Cc1ccc(-c2nn(CCN3CCC(CN(C)C)CC3)c3ncnc(N)c23)cc1,IC50,[4],> 10 µM
same,IC50,[5],> 10 µM
same,Activity,MCF7 [12],Active
same,IC50,[7],> 10 µM
same,IC50,[9],> 10 µM
COc1cc(-c2ccn(CCN3CCC(N(C)C)CC3)n2)ccc1NC(=O)OC(C)(C)C,EC50,MDA-MB-231 [11],32.6 µM
Cc1ccc(-c2nn(C(C)(C)C)c3ncnc(N)c23)cc1,IC50,[4],0.657 µM
same,IC50,[8],0.036 µM
CCOC(Cn1nc(-c2cccc(O)c2)c2c(N)ncnc21)OCC,EC50,MCF7 [10],7.6 µM
CN(C)CC1CCN(CCn2nc(-c3cccc(O)c3)c3c(N)ncnc32)CC1,EC50,MCF7 [10],30.3 µM
Cc1nc(Nc2ncc(C(=O)Nc3c(C)cccc3Cl)s2)cc(N2CCN(CCO)CC2)n1.O [DASATINIB],Activity,Danio rerio [24],Toxic
same,half-life,[25],54 min
same,solubility,[26],< 0.001 mg/mL
same,Activity,MDA-MB-231 [27],Dose-dependent effect
same,Activity,Danio rerio [28],Toxic
same,Activity,Danio rerio [29],Toxic
same,solubility,[30],18 mg/mL
Cc1ccc(-c2nn(CCN3CCN(C)CC3)c3ncnc(N)c23)cc1,Activity,MCF7 [12],Active
Cc1ccc(-c2nn(CCN3CCN(CCN(C)C)CC3)c3ncnc(N)c23)cc1,Activity,MCF7 [12],Active
COc1cc(-c2nn(CCN3CCCC(N(C)C)C3)c3ncnc(N)c23)ccc1NC(=O)OC(C)(C)C (stereo not drawn),EC50,MDA-MB-231 [11],1.99 µM
COc1cc(-c2nn(CCN3CCC(CN(C)C)CC3)c3ncnc(N)c23)ccc1NC(=O)OC(C)(C)C,Activity,[14],Non-toxic
CN(C)C1CCN(CCn2nc(-c3ccc(NC(=O)OC(C)(C)C)c(O)c3)c3c(N)ncnc32)CC1,EC50,MDA-MB-231 [11],9.71 µM
COc1cc(-c2nn(CCN3CCC(N(C)C)CC3)c3ncnc(N)c23)ccc1CC(=O)N1CCCC1,EC50,MDA-MB-231 [11],> 100 µM
CN(C)C1CCN(CCn2nc(-c3ccc(NC(=O)OC(C)(C)C)cc3)c3c(N)ncnc32)CC1,IC50,[2],0.071 µM
same,IC50,[6],> 10 µM
COc1cc(-c2nn(CCN3CCC(N(C)C)CC3)c3ncnc(N)c23)ccc1N,EC50,MDA-MB-231 [11],6.72 µM
CN(C)C1CCN(CCn2nc(-c3cccc(NC(=O)OC(C)(C)C)c3)c3c(N)ncnc32)CC1,EC50,MDA-MB-231 [11],26.8 µM
Cc1ccc(-c2nn(CCN3CCC(CCN(C)C)CC3)c3ncnc(N)c23)cc1,IC50,[4],> 10 µM
same,IC50,[5],> 10 µM
same,Activity,MCF7 [12],Active
same,IC50,[7],> 10 µM
same,IC50,[9],> 10 µM
CN(C)CC1CCN(CCn2nc(-c3ccc4ncccc4c3)c3c(N)ncnc32)CC1,EC50,MCF7 [10],93.6 µM
